Data taken from ChEMBL document CHEMBL4261624, “Resveratrol-maltol hybrids as multi-target-directed agents for Alzheimer's disease” (Bioorg Med Chem, 2018).
Activity calls are given as the source filed them. The calls are words filed in the database; no cut-off is given here.

Tests used:
[1] = target: T1, Amyloid-beta precursor protein (Homo sapiens, UniProt P05067); assay: Inhibition of HFIP-pretreated amyloid beta (1 to 42) (unknown origin) self-induced aggregation at 20 uM after 24 hrs by thioflavin-T fluorescence assay relative to control
T1 sequence (P05067 whole entry): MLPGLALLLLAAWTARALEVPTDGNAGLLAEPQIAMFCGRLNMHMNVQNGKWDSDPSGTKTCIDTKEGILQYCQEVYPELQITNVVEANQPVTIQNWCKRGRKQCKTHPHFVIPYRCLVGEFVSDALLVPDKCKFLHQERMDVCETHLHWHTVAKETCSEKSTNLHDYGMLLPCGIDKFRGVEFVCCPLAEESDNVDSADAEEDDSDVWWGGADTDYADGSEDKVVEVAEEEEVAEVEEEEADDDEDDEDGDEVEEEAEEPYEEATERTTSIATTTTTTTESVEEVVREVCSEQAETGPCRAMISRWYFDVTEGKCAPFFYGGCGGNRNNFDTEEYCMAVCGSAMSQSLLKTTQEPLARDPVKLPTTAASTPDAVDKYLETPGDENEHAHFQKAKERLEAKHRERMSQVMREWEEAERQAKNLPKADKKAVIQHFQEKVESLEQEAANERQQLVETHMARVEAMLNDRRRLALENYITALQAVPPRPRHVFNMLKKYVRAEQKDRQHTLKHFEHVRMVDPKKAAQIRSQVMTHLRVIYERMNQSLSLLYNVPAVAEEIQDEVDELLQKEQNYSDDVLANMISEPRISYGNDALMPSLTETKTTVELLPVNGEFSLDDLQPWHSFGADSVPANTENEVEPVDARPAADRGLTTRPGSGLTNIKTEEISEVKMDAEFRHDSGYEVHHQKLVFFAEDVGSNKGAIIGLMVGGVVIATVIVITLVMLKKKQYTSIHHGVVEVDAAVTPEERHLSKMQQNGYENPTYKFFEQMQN

[2] = Antioxidant activity assessed as ABTS radical scavenging activity incubated for 10 mins in dark; type: functional
[3] = target: T1, Amyloid-beta precursor protein; assay: Inhibition of HFIP-pretreated amyloid beta (1 to 42) (unknown origin) self-induced aggregation after 24 hrs by thioflavin-T fluorescence assay
[4] = target: T1, Amyloid-beta precursor protein; assay: Disaggregation of Fe3+-induced amyloid beta (1 to 42) (unknown origin) preformed fibrils at 75 uM after 24 hrs by uranyl acetate staining based transmission electron microscopic analysis
[5] = Metal chelating activity assessed as inhibition of Fe2+-induced amyloid beta (1 to 42 residues) fibrils after 24 hrs by thioflavin-T fluorescence assay
[6] = Metal chelating activity assessed as inhibition of Fe3+-induced amyloid beta (1 to 42 residues) fibrils by measuring fluorescence level after 24 hrs by thioflavin-T fluorescence assay; set-up: scale not given: the % may be the effect or the level left
[7] = target: T1, Amyloid-beta precursor protein; assay: Disaggregation of Cu2+-induced amyloid beta (1 to 42) (unknown origin) preformed fibrils assessed as remaining amyloid beta aggregation level at […] after 24 hrs by thioflavin-T fluorescence assay
[8] = Metal chelating activity assessed as inhibition of Cu2+-induced amyloid beta (1 to 42 residues) fibrils at 50 uM after 24 hrs by uranyl acetate staining based transmission electron microscopic analysis
[9] = target: T1, Amyloid-beta precursor protein; assay: Disaggregation of self-induced amyloid beta (1 to 42) (unknown origin) preformed fibrils at 50 uM after 24 hrs by uranyl acetate staining based transmission electron microscopic analysis
[10] = target: T1, Amyloid-beta precursor protein; assay: Disaggregation of Fe3+-induced amyloid beta (1 to 42) (unknown origin) preformed fibrils assessed as remaining amyloid beta aggregation level at […] after 24 hrs by thioflavin-T fluorescence assay
[11] = Metal chelating activity assessed as inhibition of Fe3+-induced amyloid beta (1 to 42 residues) fibrils at 50 uM after 24 hrs by uranyl acetate staining based transmission electron microscopic analysis
[12] = Metal chelating activity assessed as inhibition of Cu2+-induced amyloid beta (1 to 42 residues) fibrils after 24 hrs by thioflavin-T fluorescence assay
[13] = target: T1, Amyloid-beta precursor protein; assay: Disaggregation of Cu2+-induced amyloid beta (1 to 42) (unknown origin) preformed fibrils at 50 uM after 24 hrs by uranyl acetate staining based transmission electron microscopic analysis
[14] = Metal chelating activity assessed as compound-nitriloacetate Fe3+ complex formation by UV-spectrophotometric analysis

`COc1ccccc1/C=C/c1cc(=O)c(O)co1` gave an inhibition [1] of 61.1%, an IC50 [2] of 3470 nM and an IC50 [3] of 7.93 µM.
With `O=c1cc(/C=C/c2ccccc2O)occ1O` the inhibition [1] was 63.6%, the Activity [4] was “Active” and the inhibition [5] was “inactive”. For the same molecule, the Activity [6] was 16%, the Activity [7] was 62% and the inhibition [8] was “Active”. For the same molecule, the Activity [9] was “Active”, the Activity [10] was 17% and the inhibition [11] was “Active”. For the same molecule, the IC50 [2] was 1180 nM, the inhibition [12] was “inactive” and the Activity [13] was “Active”. It also gave an IC50 [3] of 8.29 µM.
`COc1cc(/C=C/c2cc(=O)c(O)co2)cc(OC)c1` showed an inhibition [1] of 18.6% and an IC50 [2] of 1790 nM.
`O=c1cc(/C=C/c2cc(O)cc(O)c2)occ1O` showed an inhibition [1] of 56.9%, an IC50 [2] of 1190 nM and an IC50 [3] of 17.9 µM.
Molecule `O=c1cc(/C=C/c2ccccc2)occ1O` has an inhibition [1] of 42.5% and an IC50 [2] of 2250 nM.
For `O=c1cc(/C=C/c2ccc(Cl)cc2)occ1O`, the inhibition [1] was 18% and the IC50 [2] was 1950 nM.
With `O=c1cc(/C=C/c2ccc(O)cc2)occ1O` the inhibition [1] was 68.5%, the Activity [4] was “Active” and the inhibition [5] was “inactive”. For the same molecule, the Activity [6] was 19%, the Activity [7] was 68% and the inhibition [8] was “Active”. The Activity [9] was “Active”, the Activity [10] was 14% and the inhibition [11] was “Active”. The IC50 [2] was 1940 nM, the inhibition [12] was “inactive” and the Activity [13] was “Active”. The IC50 [3] was 7.2 µM and the Activity [14] was “Active”.
`Cc1c(C)c2c(c(C)c1O)CCC(C)(C(=O)O)O2` (stereo unspecified) [TROLOX] showed an IC50 [2] of 3890 nM.
With `Oc1ccc(/C=C/c2cc(O)cc(O)c2)cc1` [RESVERATROL] the Activity [4] was “Active”, the inhibition [8] was “Active” and the Activity [9] was “Active”. For the same molecule, the Activity [10] was 58%, the inhibition [11] was “Active” and the IC50 [2] was 760 nM. For the same molecule, the Activity [13] was “Active”.
`O=c1cc(/C=C/c2cccc(F)c2)occ1O` showed an inhibition [1] of 58%, an IC50 [2] of 3450 nM and an IC50 [3] of 17.7 µM.
`CCOc1ccc(/C=C/c2cc(=O)c(O)co2)cc1` showed an inhibition [1] of 38.2% and an IC50 [2] of 4210 nM.
`CN(C)c1ccc(/C=C/c2cc(=O)c(O)co2)cc1` gave an inhibition [1] of 61.2%, an IC50 [2] of 3050 nM and an IC50 [3] of 5.92 µM.
Work on `O=c1cc(/C=C/c2ccc([N+](=O)[O-])cc2)occ1O` yielded an IC50 [2] of 1700 nM.
